Laboratory results as given in patent US20250025443A1, “COMPOUNDS AND METHODS FOR TREATING CORONA VIRUSES” (CLEAR CREEK BIO, INC., priority 2021, published 2025).
Where two headings read alike, the source gives them in different places.

Biological target: SARS-CoV-2 Papain-Like Protease (PLpro) (Severe acute respiratory syndrome coronavirus 2 (2019-nCoV) (SARS-CoV-2), UniProt P0DTD1)
Assay: biochemical
[1] = SARS-CoV-2 PLpro enzymatic fluorescence assay, read-out: PLpro IC50
[2] = PLpro enzymatic fluorescence assay, class symbols, read-out: PLpro IC50

| Structure (SMILES) | IC50 [1] | IC50 [2] | further results |
| --- | --- | --- | --- |
| Cc1ccc(NS(C)(=O)=O)cc1C(=O)N[C@H](C)c1cccc2ccccc12 [Compound 100, (R)-2-Methyl-5-(methylsulfonamido)-N-(1-(naphthalen-1-yl)ethyl)benzamide] | > 5000 nM | – | – |
| COCC(N)COc1ccc(C)c(C(=O)NC2(c3cccc4ccccc34)CC2)c1 (stereo not drawn) [Compound 400, 5-(2-Amino-3-methoxypropoxy)-2-methyl-N-(1-(naphthalen-1-yl)cyclopropyl)benzamide] | < 100 nM | – | – |
| CCc1ccccc1C1(NC(=O)c2cc(OCCN(C)C)ccc2C)CC1 [Compound 364, 5-(2-(Dimethylamino)ethoxy)-N-(1-(2-ethylphenyl)cyclopropyl)-2-methylbenzamide] | 100 to 1000 nM | – | – |
| CC(=O)c1ccc(-c2cc(C3(NC(=O)c4cc(OC[C@@H]5CCN5C)ccc4C)COC3)c3cccnc3c2)s1 [Compound 821, (S)-N-(3-(7-(5-Acetylthiophen-2-yl)quinolin-5-yl)oxetan-3-yl)-2-methyl-5-((1-methylazetidin-2-yl)methoxy)benzamide] | – | < 100 nM | – |
| Cc1cnc(OCCN(C)C)cc1C(=O)NC1(c2cccc3ccccc23)CC1 [Compound 366, 2-(2-(Dimethylamino)ethoxy)-5-methyl-N-(1-(naphthalen-1-yl)cyclopropyl) isonicotinamide] | 100 to 1000 nM | – | – |
| Cc1ccc(OC[C@@H]2CCN2C)cc1C(=O)NC1(c2cc(C#N)cc3ncccc23)CC1 [Compound 738, (S)-N-(1-(7-cyanoquinolin-5-yl)cyclopropyl)-2-methyl-5-((1-methylazetidin-2-yl)methoxy)benzamide] | – | < 100 nM | – |
| C=C(C)c1cc(C2(NC(=O)c3cc(OCC4CCN4C)ccc3C)CC2)c2ccccc2c1 (stereo not drawn) [Compound 508, 2-Methyl-5-((1-methylazetidin-2-yl)methoxy)-N-(1-(3-(prop-1-en-2-yl)naphthalen-1-yl)cyclopropyl)benzamide] | < 100 nM | – | – |
| COc1cc(C2(NC(=O)c3cc(OC[C@@H](C)N)ccc3C)CC2)c2cccnc2c1 [Compound 535, (R)-5-(2-Aminopropoxy)-N-(1-(7-methoxyquinolin-5-yl)cyclopropyl)-2-methylbenzamide] | – | < 100 nM | – |
| Cc1ccc(OCCN(C)C)cc1NC(=O)C(C)c1cccc2ccccc12 (stereo not drawn) [Compound 577, N-(5-(2-(Dimethylamino)ethoxy)-2-methylphenyl)-2-(naphthalen-1-yl)propanamide] | > 5000 nM | – | – |
| CC(C)c1ccccc1C(C)N1CCC(C(=O)NCc2cccc(F)c2)CC1 (stereo not drawn) [Compound 552, N-(3-Fluorobenzyl)-1-(1-(2-isopropylphenyl)ethyl)piperidine-4-carboxamide] | – | > 5000 nM | – |
| Cc1ccc(CCC2CCN2)cc1C(=O)NC1(c2cccc3ccccc23)CC1 (stereo not drawn) [Compound 449, 5-(2-(Azetidin-2-yl)ethyl)-2-methyl-N-(1-(naphthalen-1-yl)cyclopropyl)benzamide] | < 100 nM | – | – |
| Cc1cccc(/C=C/c2cc(C3(NC(=O)c4cc(OC[C@@H]5CCN5C)ccc4C)CC3)c3cccnc3c2)c1 [Compound 690, (S,E)-2-Methyl-5-((1-methylazetidin-2-yl)methoxy)-N-(1-(7-(3-methylstyryl)quinolin-5-yl)cyclopropyl)benzamide] | – | < 100 nM | – |
| COc1cc(C2(NC(=O)c3cc(OCC4c5ccccc5CCN4C)ccc3C)CC2)c2cccnc2c1 (stereo not drawn) [Compound 801, N-(1-(7-Methoxyquinolin-5-yl)cyclopropyl)-2-methyl-5-((2-methyl-1,2,3,4-tetrahydroisoquinolin-1-yl)methoxy)benzamide] | – | < 100 nM | – |
| Cc1ccc(Nc2cnn(C)c2)cc1C(=O)N[C@H](C)c1cccc(-c2ccc(CN[C@H]3CC[C@@H](O)C3)s2)c1 [Compound 137, N-((R)-1-(3-(5-((((1S,3R)-3-Hydroxycyclopentyl)amino)methyl)thiophen-2-yl)phenyl)ethyl)-2-methyl-5-((1-methyl-1H-pyrazol-4-yl)amino)benzamide] | 1000 to 5000 nM | – | – |
| Cc1ccc(OC[C@@H]2CCN2C)cc1C(=O)NC1(c2cc(-c3ccc(CN[C@H]4CC[C@@H](O)C4)s3)cc3ncccc23)CC1 [Compound 751, N-(1-(7-(5-((((1S,3R)-3-Hydroxycyclopentyl)amino)methyl)thiophen-2-yl)quinolin-5-yl)cyclopropyl)-2-methyl-5-(((S)-1-methylazetidin-2-yl)methoxy)benzamide] | – | < 100 nM | – |
| CCCNc1cc(C2(NC(=O)c3cc(OC[C@@H]4CCN4C)ccc3C)CC2)c2cccnc2c1 [Compound 743, (S)-2-Methyl-5-((1-methylazetidin-2-yl)methoxy)-N-(1-(7-(propylamino)quinolin-5-yl)cyclopropyl)benzamide] | < 100 nM | – | – |
| COc1cc(C2(NC(=O)c3cc(OC[C@H]4CCN4C)ccc3C)CC2)c2cccnc2c1 [Compound 558, (R)-N-(1-(7-Methoxyquinolin-5-yl)cyclopropyl)-2-methyl-5-((1-methylazetidin-2-yl)methoxy)benzamide] | – | < 100 nM | – |
| Cc1ccc(OC[C@@H]2CCN2C)cc1C(=O)NC1(c2cc(C(C)O)cc3ncccc23)CC1 (stereo partly drawn) [Compound 676, N-(1-(7-(1-Hydroxyethyl)quinolin-5-yl)cyclopropyl)-2-methyl-5-(((S)-1-methylazetidin-2-yl)methoxy)benzamide] | – | < 100 nM | – |

| Structure (SMILES) | IC50 [1] | IC50 [2] | further results |
| --- | --- | --- | --- |
| Cc1ccc(OC[C@@H]2CCN2)cc1C(=O)NC1(c2cc(C3=CCCCC3)cc3ncccc23)CC1 [Compound 662, (S)-5-(Azetidin-2-ylmethoxy)-N-(1-(7-(cyclohex-1-en-1-yl)quinolin-5-yl)cyclopropyl)-2-methylbenzamide] | – | < 100 nM | – |
| C=C(C)c1cc(C2(NC(=O)c3cc(OC[C@@H]4CCCN4C)ccc3C)CC2)c2cccnc2c1 [Compound 719, (S)-2-Methyl-5-((1-methylpyrrolidin-2-yl)methoxy)-N-(1-(7-(prop-1-en-2-yl)quinolin-5-yl)cyclopropyl)benzamide] | – | < 100 nM | – |
| Cc1ccc(OC[C@@H]2CCN2C)cc1C(=O)NC1(c2cc3ccccc3c3ccccc23)CC1 [Compound 569, (S)-2-Methyl-5-((1-methylazetidin-2-yl)methoxy)-N-(1-(phenanthren-9-yl)cyclopropyl)benzamide] | – | – | IC50 (PLpro IC50, PLpro enzymatic fluorescence assay, class symbols): > 5000 nM |
| CC(C)=Cc1cc(C2(NC(=O)c3cc(OC[C@@H]4CCN4C)ccc3C)CC2)c2cccnc2c1 [Compound 603, (S)-2-Methyl-5-((1-methylazetidin-2-yl)methoxy)-N-(1-(7-(2-methylprop-1-en-1-yl)quinolin-5-yl)cyclopropyl)benzamide] | – | < 100 nM | – |
| Cc1ccc(OCC2CN(C)C2)cc1C(=O)NC1(c2cccc3ccccc23)CC1 [Compound 427, 2-Methyl-5-((1-methylazetidin-3-yl)methoxy)-N-(1-(naphthalen-1-yl)cyclopropyl)benzamide] | – | < 100 nM | – |
| Cc1ccc(N)cc1NC(=O)C(C)c1cccc2ccccc12 (stereo not drawn) [Compound 163, N-(5-Amino-2-methylphenyl)-2-(naphthalen-1-yl)propanamide] | > 5000 nM | – | – |
| [2H]C1([2H])C([2H])([2H])C1(NC(=O)c1cc(OC[C@@H]2CCN2C)ccc1C)c1cc(OC)cc2nc(C)ccc12 [Compound 804, (S)—N-(1-(7-Methoxy-2-methylquinolin-5-yl)cyclopropyl-2,2,3,3-d)-2-methyl-5-((1-methylazetidin-2-yl)methoxy)benzamide] | – | < 100 nM | – |
| Cc1ccc(N)cc1C(=O)NC(c1cccc2ccccc12)C1CCOCC1 (stereo not drawn) [Compound 109, 5-Amino-2-methyl-N-(naphthalen-1-yl(tetrahydro-2H-pyran-4-yl)methyl)benzamide] | > 5000 nM | – | – |
| Cc1ccc(OC[C@@H]2CCCN2C)cc1C(=O)NC1(c2cccc3ncccc23)CC1 [Compound 379, (S)-2-Methyl-5-((1-methylpyrrolidin-2-yl)methoxy)-N-(1-(quinolin-5-yl)cyclopropyl)benzamide] | < 100 nM | – | – |
| Cc1ccc(OC[C@@H]2CCN2)cc1C(=O)NC1(c2cc(-c3ccc(F)c(Cl)c3)cc3ncccc23)CC1 [Compound 666, (S)-5-(Azetidin-2-ylmethoxy)-N-(1-(7-(3-chloro-4-fluorophenyl)quinolin-5-yl)cyclopropyl)-2-methylbenzamide] | – | < 100 nM | – |
| Cc1cc2cc(CNC(=O)OC(C)(C)C)[nH]c2cc1C(=O)N[C@H](C)c1cccc2ccccc12 [Compound 189, (R)-tert-Butyl((5-methyl-6-((1-(naphthalen-1-yl)ethyl)carbamoyl)-1H-indol-2-yl)methyl)carbamate] | > 5000 nM | – | – |
| Cc1ccc(OC[C@@H]2CCN2C)cc1C(=O)NC1(c2cc(-c3ncn4ccccc34)cc3ncccc23)CC1 [Compound 736, (S)—N-(1-(7-(Imidazo[1,5-a]pyridin-1-yl)quinolin-5-yl)cyclopropyl)-2-methyl-5-((1-methylazetidin-2-yl)methoxy)benzamide] | – | < 100 nM | – |
| Cc1ccc(OCC2CCCCN2C)cc1C(=O)NC1(c2cccc3ccccc23)CC1 (stereo not drawn) [Compound 288, 2-Methyl-5-((1-methylpiperidin-2-yl)methoxy)-N-(1-(naphthalen-1-yl)cyclopropyl)benzamide] | 100 to 1000 nM | – | – |
| Cc1ccc(C2(NC(=O)c3cc(OCCN(C)C)ccc3C)CC2)cc1 [Compound 253, 5-(2-(Dimethylamino)ethoxy)-2-methyl-N-(1-(p-tolyl)cyclopropyl)benzamide] | > 5000 nM | – | – |
| Cc1ccc(OCCNC(C)C)cc1C(=O)NC1(c2cccc3ccccc23)CC1 [Compound 362, 5-(2-(Isopropylamino)ethoxy)-2-methyl-N-(1-(naphthalen-1-yl)cyclopropyl)benzamide] | < 100 nM | – | – |
| Cc1cc2cc(C3CNC3)[nH]c2cc1C(=O)N[C@H](C)c1cccc2ccccc12 [Compound 156, (R)-2-(Azetidin-3-yl)-5-methyl-N-(1-(naphthalen-1-yl)ethyl)-1H-indole-6-carboxamide] | 1000 to 5000 nM | – | – |
| Cc1ccc(OCC2CC(C)(C)N2Cc2ccccc2)cc1C(=O)NC1(c2cccc3ccccc23)CC1 (stereo not drawn) [Compound 492, 5-((1-Benzyl-4,4-dimethylazetidin-2-yl)methoxy)-2-methyl-N-(1-(naphthalen-1-yl)cyclopropyl)benzamide] | 100 to 1000 nM | – | – |
| COc1cc(C2(NC(=O)c3cc(OCCN)ccc3C)CC2)c2ccccc2c1 [Compound 363, 5-(2-Aminoethoxy)-N-(1-(3-methoxynaphthalen-1-yl)cyclopropyl)-2-methylbenzamide] | < 100 nM | – | – |
